Reference: patent US12152038B2, “Vasopressin receptor antagonists and products and methods related thereto” (Neumora Therapeutics, Inc., priority 2017, dated 2024)
Where two headings read alike, the source gives them in different places.

Experiments:
[1] = target: T1, MDR1 (P-glycoprotein) (Homo sapiens, UniProt P08183); assay: MDR1-MDCK permeability and efflux assay (Papp, efflux ratio, effective efflux ratio); format: in vitro ADME; settings: dog; for Papp A→B at 1 h, 10 μM: pH 7.4, read-out: Papp AB MDR1
T1 construct: host or cells: MDCK (MDR1-MDCK; wild-type MDCK as comparator)
T1 sequence (P08183 whole entry): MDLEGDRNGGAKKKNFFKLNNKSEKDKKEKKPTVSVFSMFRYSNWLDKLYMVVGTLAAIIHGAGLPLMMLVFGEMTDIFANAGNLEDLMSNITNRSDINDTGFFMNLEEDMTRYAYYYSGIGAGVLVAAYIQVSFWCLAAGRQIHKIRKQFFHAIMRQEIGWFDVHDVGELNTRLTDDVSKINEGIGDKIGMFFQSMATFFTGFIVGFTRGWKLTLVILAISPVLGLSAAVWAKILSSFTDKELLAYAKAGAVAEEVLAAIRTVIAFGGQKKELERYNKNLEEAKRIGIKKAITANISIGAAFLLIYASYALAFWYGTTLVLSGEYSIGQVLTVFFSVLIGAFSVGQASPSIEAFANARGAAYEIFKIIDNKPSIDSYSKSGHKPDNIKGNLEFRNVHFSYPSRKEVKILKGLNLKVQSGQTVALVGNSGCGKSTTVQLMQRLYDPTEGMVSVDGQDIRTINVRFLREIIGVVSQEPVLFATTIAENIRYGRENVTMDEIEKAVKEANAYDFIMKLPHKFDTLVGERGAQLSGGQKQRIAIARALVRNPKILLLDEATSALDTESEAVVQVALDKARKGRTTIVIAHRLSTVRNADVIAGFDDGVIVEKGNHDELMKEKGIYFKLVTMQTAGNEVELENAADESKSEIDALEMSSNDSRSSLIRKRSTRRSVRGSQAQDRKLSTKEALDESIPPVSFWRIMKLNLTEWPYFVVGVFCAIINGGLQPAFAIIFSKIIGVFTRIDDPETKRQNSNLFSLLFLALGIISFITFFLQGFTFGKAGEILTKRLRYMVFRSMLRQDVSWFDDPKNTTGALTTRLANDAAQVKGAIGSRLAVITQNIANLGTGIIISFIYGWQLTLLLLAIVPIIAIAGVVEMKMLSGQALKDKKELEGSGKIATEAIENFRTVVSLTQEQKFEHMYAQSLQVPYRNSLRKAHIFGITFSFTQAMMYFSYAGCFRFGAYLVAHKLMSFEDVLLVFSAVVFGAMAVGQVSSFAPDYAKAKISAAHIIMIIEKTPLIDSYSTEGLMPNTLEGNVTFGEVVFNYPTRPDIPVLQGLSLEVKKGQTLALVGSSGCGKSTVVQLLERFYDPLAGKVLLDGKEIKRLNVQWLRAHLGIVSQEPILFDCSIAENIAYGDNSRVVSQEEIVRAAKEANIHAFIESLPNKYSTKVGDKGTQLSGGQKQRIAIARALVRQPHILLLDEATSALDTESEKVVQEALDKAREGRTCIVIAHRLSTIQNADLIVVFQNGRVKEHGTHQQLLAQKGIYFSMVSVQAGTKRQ
Protocol: (§1) The MDR1-MDCK effective efflux assay was performed as described in the BioFocus Standard Operating Procedure, ADME-SOP-56. Both wild-type (WT) and MDR1-MDCK cells (Solvo Biotechnology) were seeded onto 24-well Transwell plates at 2.35×10^5 cells per well and used in confluent monolayers after a 3 day culture at 37° C. under 5% CO2. For both cell types, test and control compounds (propranolol, vinblastine) were added (10 μM, 0.1% DMSO final, n=2) to donor compartments of the Transwell plate assembly in assay buffer (Hanks balanced salt solution supplemented with 25 mM HEPES, adjusted to pH 7.4) for both apical to basolateral (A>B) and basolateral to apical (B>A) measurements. Incubations were performed at 37° C., with samples removed from both donor and acceptor chambers at T=0 and 1 hour and compound analysed by mass spectrometry (LC-MS/MS) including an analytical internal standard.
(§2) Apparent permeability (Papp) values were determined from the relationship: Papp=[CompoundAcceptor T=end]×V Acceptor/([Compound Donor T=0]×V Donor)/incubation time×V Donor/Area×60×10^−6 cm/s
(§3) In this equation, V is the volume of each Transwell compartment (apical 125 μL, basolateral 600 μL), and concentrations are the relative MS responses for compound (normalized to internal standard) in the donor chamber before incubation and acceptor chamber at the end of the incubation, and Area is the area of cells exposed for drug transfer (0.33 cm^2).
(§4) Efflux ratios (Papp B>A/Papp A>B) were calculated for each compound from the mean Papp values in each direction for both wild-type and MDR1-MDCK cells.
(§5) In order to confirm the involvement of MDR1 in any efflux seen, an “effective efflux ratio” (EER) was calculated by comparing compound efflux ratios (ER) in the two cell types by the following equation: EER=ER(MDR1-MDCK)/ER(wild-type MDCK)
(§6) This ratio illustrates the effect of the over-expressed MDR1 normalised for the background movement of compound through the wild-type cells.
(§7) Lucifer Yellow (LY) was added to the apical buffer in all wells to assess viability of the cell layer. […] Recoveries<50% indicates compound solubility, stability or binding issues, thereby reducing the reliability of a result.
(§8) The inherent ability of a potential drug molecule to penetrate the blood brain barrier and avoid efflux by transporters expressed in the brain, can be roughly correlated with the Papp(A-B) and the efflux ratio (as defined above), respectively. A potential drug molecule with an apparent permeability<7 (10^−6 cm/sec) has low permeability (+), >7 (10^−6 cm/sec) but <10 (10^−6 cm/sec) has moderate permeability (++), >10 (10^−6 cm/sec) but <20 (10^−6 cm/sec) has good permeability (+++), and >20 (10^−6 cm/sec) is highly permeable (++++). High permeability in the WT and MDCK II cell permeability assay increases the probability of blood brain barrier penetration and access to the CNS. A potential drug molecule in the above assay system with an efflux ratio or effective efflux ratio of <1 has low probability of being an efflux substrate (++++), >1 but <2 has moderate probability of being an efflux substrate (+++), >2 but <3 has has an increased probability of being an efflux substrate (++), and >3 has a high probability of being an efflux substrate (+). If a potential drug molecule is an efflux substrate, the molecule will have a low probability of reaching exposures in the brain (site of action) that will result in efficacious levels of receptor occupancy.

[2] = target: T2, human Arginine Vasopressin Receptor 1a (AVPR1a) (Homo sapiens, UniProt P37288); assay: Vasopressin V1a receptor antagonist assay (FLIPR calcium, CHO-AVPR1a cells); format: cell-based
T2 construct: expressed in transfected cells; host or cells: CHO (CHO-AVPR1a, kept under G418 selection)
T2 sequence (P37288 whole entry): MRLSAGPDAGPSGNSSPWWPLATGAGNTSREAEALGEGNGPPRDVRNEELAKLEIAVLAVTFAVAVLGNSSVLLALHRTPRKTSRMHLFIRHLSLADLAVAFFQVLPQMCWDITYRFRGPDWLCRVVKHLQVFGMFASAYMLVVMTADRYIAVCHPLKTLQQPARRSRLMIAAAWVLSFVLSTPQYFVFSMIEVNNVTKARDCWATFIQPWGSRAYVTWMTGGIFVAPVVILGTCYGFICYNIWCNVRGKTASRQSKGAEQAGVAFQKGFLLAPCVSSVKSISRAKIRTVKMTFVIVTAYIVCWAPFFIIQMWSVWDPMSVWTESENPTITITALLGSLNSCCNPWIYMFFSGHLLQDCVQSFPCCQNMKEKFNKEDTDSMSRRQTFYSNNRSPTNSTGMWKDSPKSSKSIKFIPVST
Protocol: (§9) The purpose of this assay was to determine the inhibitory effect of synthesized compounds on the Vasopressin V1a receptor. The assay was performed in Chinese Hamster Ovary (CHO) cells expressing the human Arginine Vasopressin Receptor 1a (AVPR1a). Arginine Vasopressin (AVP) evokes an increase in intracellular calcium in CHO-AVPR1a cells which is measured in a fluorescence assay on the FLIPR^TETRA using calcium sensitive dyes. Test compounds were assessed for their ability to affect the magnitude of the response to AVP, with antagonists showing a concentration-dependent reduction in the AVP-mediated fluorescence. Compounds were tested in duplicate in a 10-point, 1:3 dilution series starting at a nominal concentration of 3 μM in the assay.
CHO-AVPR1a cells were maintained in routine culture in T175 Flasks at 37° C., 5% CO2. The growth medium consists of Ham's F12 media supplemented with 10% v/v fetal bovine serum, 1× non-essential amino acids, and 0.4 mg/ml Geneticin G418.
(§10) On day one, cells were harvested from T175 flasks when they are 80-90% confluent by first washing the cell monolayer with PBS and then dissociated using trypsin 0.05%/EDTA (3 mL for a T175 Flask). The flasks were incubated at room temperature until the cells detached. To the cell suspension, 10 ml of growth media was added and the cell density determined using the Vi-Cell automated cell counter. The cells were spun at 1000 rpm for 3 minutes, then the supernatant was carefully removed and discarded. The cell pellet was re-suspended at 6.0e^5 cells/ml in growth media. 25 μL of cells in growth media was dispensed into each well (15,000 cells per well) of a poly-D-lysine coated black, clear bottomed, 384-well plate. The plates were incubated at 37° C., 5% CO2 overnight.
(§11) At the start of each assay day, the potency of AVP was assessed and an EC80 concentration determined for subsequent compound profiling. Assays were performed using a two-step addition protocol on the FLIPR^TETRA; first addition of 5 μl of control or test compound at 10× final in assay buffer with 15 min incubation at 37° C., 5% CO2 followed by 10 μl of AVP at 6× final concentration in assay buffer. Changes in fluorescence were monitored for 3 min after both additions on the FLIPR^TETRA using 470-495 nm excitation and 515-575 nm emission wavelengths. The assay buffer consisted of HBSS (+Ca/+Mg) supplemented with 20 mM HEPES, and for the preparation of the AVP agonist only, 0.1% w/v bovine serum albumin. The assay was initiated by the removal of growth media from the cells and replacement with 45 μl of Calcium-6 dye (Molecular Devices) prepared at 1× in assay buffer. Cells were loaded with dye for 60-90 min at 37° C., 5% CO2 before initiation of the FLIPR^TETRA protocol. […] For compound profiling, test compounds were first serially diluted in DMSO (10-point curve, 1:3 dilutions) then diluted 33.3-fold in assay buffer prior to addition to the dye loaded cells on the FLIPR^TETRA. At the end of the incubation period, 10 μl of AVP in assay buffer containing 0.1% BSA was added at the previously determined EC80 concentration.
In-plate controls for the assay included balovaptan and PF-184563 concentration-response curves as reference V1a antagonists, and an AVP concentration-response curve to confirm the reproducibility of the EC80 used for the compound challenge.

[3] = Wild-type MDCK permeability and efflux assay (Papp, efflux ratio); format: in vitro ADME; settings: dog, pH 7.4, wild-type MDCK cells; for efflux ratio at 1 h, 10 μM: Papp B>A/Papp A>B, read-out: ER WT (Efflux Ratio)
Protocol: as §1, §2, §3, §4, §5, §6, §7, §8

[4] = target: T3, human Arginine Vasopressin Receptor 1b (AVPR1b) (Homo sapiens, UniProt P47901); assay: Vasopressin V1b receptor antagonist assay (FLIPR calcium, CHO-AVPR1b cells); format: cell-based
T3 construct: expressed in transfected cells; host or cells: CHO (CHO-AVPR1b, kept under G418 selection)
T3 sequence (P47901 1-424): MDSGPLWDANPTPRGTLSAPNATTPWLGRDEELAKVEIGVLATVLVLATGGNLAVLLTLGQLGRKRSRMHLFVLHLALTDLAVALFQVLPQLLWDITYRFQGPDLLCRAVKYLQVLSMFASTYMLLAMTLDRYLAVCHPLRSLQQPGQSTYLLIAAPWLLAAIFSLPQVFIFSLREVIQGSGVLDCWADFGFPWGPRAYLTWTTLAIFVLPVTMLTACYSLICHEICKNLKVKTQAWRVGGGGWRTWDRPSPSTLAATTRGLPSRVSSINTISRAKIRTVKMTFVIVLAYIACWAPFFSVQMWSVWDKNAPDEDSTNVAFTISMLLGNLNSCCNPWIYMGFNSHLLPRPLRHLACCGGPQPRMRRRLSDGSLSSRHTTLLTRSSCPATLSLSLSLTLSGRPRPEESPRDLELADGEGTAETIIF
Protocol: as §9, with “the” for “this”, “V1b” for “V1a”, “1b (AVPR1b).” for “1a (AVPR1a).”, “CHO-AVPR1b” for “CHO-AVPR1a”, “fluorescence.” for “fluorescence. Compounds were tested in duplicate in a 10-point, 1:3 dilution series starting at a nominal concentration of 3 μM in the assay.”
CHO-AVPR1b cells were maintained in routine culture in T175 Flasks at 37° C., 5% CO2. The growth medium consisted of Ham's F12 media supplemented with 10% v/v fetal bovine serum, 1× non-essential amino acids, and 0.4 mg/ml Geneticin G418.
as §10, with “Cells were” for “On day one, cells were”, “they were” for “they are”
as §11, with “period” for “period,”
In-plate controls for the assay included a Nelivaptan concentration-response curve as the reference V1b antagonist and an AVP concentration-response curve to confirm the reproducibility of the EC80 used for the compound challenge.

[5] = MDCK-MDR1, pH 7.4, ER(MDR1-MDCK)/ER(wild-type MDCK), read-out: EER (Effective Efflux Ratio)
[6] = MDCK-MDR1, pH 7.4, Papp B>A/Papp A>B, MDR1-MDCK cells, read-out: ER MDR1 (Efflux Ratio)

efflux ratio at 1 h, 10 μM [1, 5]	efflux ratio at 1 h, 10 μM [1, 6]	Papp A→B at 1 h, 10 μM ([1]; MDR1-MDCK cells)	IC50 [2]	Papp A→B at 1 h, 10 μM [3]	efflux ratio at 1 h, 10 μM [3]	IC50 [4]	Compound
1 to 2	< 1	> 20 ×10⁻⁶ cm/s	≥ 1000 nM	> 20 ×10⁻⁶ cm/s	< 1	–	CC1COc2cc(F)ccc2N1C(=O)N1CC2(C1)CN(c1ccc(F)cn1)C2 (single isomer, unassigned) [12-1-A]
1 to 2	< 1	> 20 ×10⁻⁶ cm/s	≥ 1000 nM	> 20 ×10⁻⁶ cm/s	< 1	–	CC1COc2cc(Cl)ccc2N1C(=O)N1CC2(C1)CN(c1cc(C#N)ccn1)C2 (single isomer, unassigned) [20-6-A]
> 3	> 3	> 20 ×10⁻⁶ cm/s	< 100 nM	> 20 ×10⁻⁶ cm/s	1 to 2	–	O=C(N1CC2(C1)CN(c1cnccn1)C2)N1CCC(O)c2cc(Cl)ccc21 (single isomer, unassigned) [13-3-B]
–	–	–	< 100 nM	–	–	≥ 1000 nM	O=C(N1CC2(C1)CN(c1ncccc1F)C2)N1CCOc2cc(Cl)ccc21 [1-1, (7-chloro-2,3-dihydro-4H-benzo[b][1,4]oxazin-4-yl)(6-(3-fluoropyridin-2-yl)-2,6-diazaspiro[3.3]heptan-2-yl)methanone]
–	–	–	≥ 1000 nM	–	–	–	CN1Cc2cnc(N3CC4(CN(C(=O)N5CCOc6cc(Cl)ccc65)C4)C3)nc2C1 [1-28]
–	–	–	≥ 1000 nM	–	–	–	O=C(N1CC2(C1)CN(c1ccc(OC(F)F)cn1)C2)N1CCOc2cc(Cl)ccc21 [1-12]
–	–	–	500 to 1000 nM	–	–	–	CC(C)(C)OC(=O)N1CC2(C1)CN(C(=O)N1CCOc3cc(Cl)ccc31)C2 [1-61]
–	–	–	100 to 500 nM	–	–	–	COc1ccc(N2CC3(CN(C(=O)N4CCOc5cc(Cl)ccc54)C3)C2)nn1 [1-27]
–	–	–	500 to 1000 nM	–	–	–	CC1COc2cc(Cl)ccc2N1C(=O)N1CC2(C1)CN(c1ccccn1)C2 (single isomer, unassigned) [1-60-A]
–	–	–	< 100 nM	–	–	–	O=C(N1CC2(C1)CN(c1ccc(F)cn1)C2)N1CCC(O)c2c1ccc(Cl)c2F (single isomer, unassigned) [13-5-A]
